{
  "source": "patent US9345241B2",
  "about": "“Composition having biocide activity for aqueous preparations” (Omya International AG, priority 2008, dated 2016)",
  "key": {"[1]": {"system": "Methylobacterium extorquens", "assay": "Biocidal activity of EDDM biocide in calcium carbonate slurries, plate count", "type": "cell-based", "description": "(§1) All quoted bacterial counts (values are in cfu/ml) in the Tables herebelow are determined after 5 days following plate-out and in accordance with counting method described in “Bestimmung von aeroben mesophilen Keimen”, Schweizerisches Lebensmittelbuch, chapter 56, section 7.01, edition of 1985, revised version of 1988.\n(§2) (Ethylenedioxy)dimethanol (EDDM), an aldehyde-releasing biocide, was introduced into 50 g samples of each of calcium carbonate slurry 1 and calcium carbonate slurry 2 in an amount corresponding to 1500 ppm of aldehyde-releasing EDDM biocide based on the weight of the weight of water in the slurry. In parallel, control samples of calcium carbonate slurry 1 and calcium carbonate slurry 2 were prepared in absence of EDDM.\n(§3) Half of the samples of calcium carbonate slurry 1 and calcium carbonate slurry 2 were then inoculated with 1 mL of Methylobacterium extorquens, while the remaining samples where inoculated with 1 mL of Pseudomonas putida. Each of the samples was incubated at 30° C. for 72 hours. Thereafter, a 1:10 dilution in phosphate buffered saline (PBS) was plated on plate count agar (PCA). These plates were incubated at 30° C. and analysed after 5 days."}, "Pseudomonas putida": {"system": "Pseudomonas putida", "assay": "Biocidal activity of EDDM biocide in calcium carbonate slurries, plate count", "type": "cell-based", "description": "as §1, §2, §3"}, "[2]": {"settings": "EDDM 1500 ppm in combination with lithium"}, "[3]": {"settings": "EDDM alone at 1500 ppm, no lithium"}},
  "data": [
    {"smiles": "OCOCCOCO", "note": "[EDDM, (Ethylenedioxy)dimethanol]", "values": [
      {"measurement": "bacterial count of the suspension", "setting": "[1]; [2]", "result": "below 10^4 cfu/ml"},
      {"measurement": "resistance of the strain to the biocide implemented alone", "setting": "[1]; [3]", "result": "show resistance"},
      {"measurement": "bacterial count of the suspension", "setting": "Pseudomonas putida; [2]", "result": "below 10^4 cfu/ml"},
      {"measurement": "resistance of the strain to the biocide implemented alone", "setting": "Pseudomonas putida; [3]", "result": "show resistance"}
    ]}
  ]
}
